The test addresses T1, human 4lg B7-H3 (Homo sapiens, UniProt Q5ZPR3).
T1 sequence (Q5ZPR3 29-534): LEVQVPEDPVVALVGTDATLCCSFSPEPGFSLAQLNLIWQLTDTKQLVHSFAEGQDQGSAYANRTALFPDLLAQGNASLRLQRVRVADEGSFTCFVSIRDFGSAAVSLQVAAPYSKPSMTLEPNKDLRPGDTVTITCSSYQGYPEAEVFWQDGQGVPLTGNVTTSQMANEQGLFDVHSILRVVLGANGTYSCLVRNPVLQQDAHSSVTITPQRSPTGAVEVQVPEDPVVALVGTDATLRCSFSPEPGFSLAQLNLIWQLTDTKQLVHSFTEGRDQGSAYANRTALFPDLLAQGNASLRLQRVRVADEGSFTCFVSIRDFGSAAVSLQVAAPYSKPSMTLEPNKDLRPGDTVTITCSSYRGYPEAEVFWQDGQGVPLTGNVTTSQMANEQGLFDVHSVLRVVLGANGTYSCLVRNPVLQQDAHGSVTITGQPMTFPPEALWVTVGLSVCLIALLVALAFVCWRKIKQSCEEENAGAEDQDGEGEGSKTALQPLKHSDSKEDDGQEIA
The experiment in a line: Affinity determination by surface plasmon resonance (SPR) to 4Ig B7-H3.

Where [1] appears, read: SPR KD—37° C., 4Ig B7-H3, 37° C. flow cell temperature.
[2] abbreviates: SPR KD—25° C., 4Ig B7-H3, 25° C. flow cell temperature.

Like-named read-outs stand apart in the source and are kept apart here. Starred links: 1 amine or outer side, 2 acyl side, 3 side chain; linkers in the order of their positions; H or OH if unused. Positions of bridges follow the written chain, without caps; N, C: chain ends. Non-standard residues stand in square brackets, D forms with d. Residues, ends and D or L forms follow the SMILES beside them. Groups on a side chain read outwards from the residue. *: point of attachment. X2 = O=C(O)CN1CCN(CC(=O)O)CCN(CC(=O)NCCOCCOCCOCCOCC(=O)*)CCN(CC(=O)O)CC1; Ala(1-CH2CO2H-4-piperidyl) = N[C@@H](CC1CCN(CC(=O)O)CC1)C(=O)O; Ala(piperidin-4-yl) = O=C([C@H](CC1CCN([*:3])CC1)N[*:1])[*:2]; DOTA = O=C(O)CN1CCN(CC(=O)O)CCN(CC(=O)*)CCN(CC(=O)O)CC1; Phe(4-NHCONH2) = NC(=O)Nc1ccc(C[C@H](N)C(=O)O)cc1; Tyr(SO2F) = N[C@@H](Cc1ccc(OS(=O)(=O)F)cc1)C(=O)O; Trp(5-F) = N[C@@H](Cc1c[nH]c2ccc(F)cc12)C(=O)O; X1 = C[C@@H](c1ccccc1)[C@H](N[*:1])C(=O)[*:2]; Ala(4-THP) = N[C@@H](CC1CCOCC1)C(=O)O; Phe(2-F) = N[C@@H](Cc1ccccc1F)C(=O)O; Val(3-OH) = CC(C)(O)[C@H](N)C(=O)O; PEG4 = NCCOCCOCCOCCOCCC(=O)O; Tle = CC(C)(C)[C@H](N)C(=O)O; hLeu = CC(C)CC[C@H](N)C(=O)O; Nle = CCCC[C@H](N)C(=O)O

The Kd is the constant that tells how readily two partners part at equilibrium. As to `CC(=O)N[C@@H](CCC(C)C)C(=O)N[C@@H](Cc1ccc(O)cc1)C(=O)N[C@H]1CSSC[C@@H](C(=O)N[C@@H](Cc2c[nH]c3ccc(F)cc23)C(=O)N[C@@H](Cc2ccccc2)C(=O)N[C@H](C(=O)O)C(C)(C)O)NC(=O)[C@H](Cc2ccc(O)cc2)NC(=O)[C@H](C(C)C)NC(=O)[C@H](CC(=O)O)NC(=O)[C@H](CC2CCOCC2)NC(=O)[C@H](CC2CCN(C(=O)CN3CCN(CC(=O)O)CCN(CC(=O)O)CCN(CC(=O)O)CC3)CC2)NC(=O)CNC(=O)[C@H](C(C)(C)C)NC1=O` [compound 342, Ac-hLeu-Y-C-Tbg-G-Pip(DOTA)Ala-ThpA-D-V-Y-C-5FW-F-hydroxyVal-COOH] (Ac-[hLeu]YC[Tle]G[Ala(piperidin-4-yl)](DOTA)[Ala(4-THP)]DVYC[Trp(5-F)]F[Val(3-OH)]-OH; disulfide 3-11), the dissociation constant Kd under setting [1] lay in the range of 10 to 100 nM. On to `CC(=O)N[C@@H](CCC(C)C)C(=O)N[C@@H](Cc1ccc(O)cc1)C(=O)N[C@H]1CSSC[C@@H](C(=O)N[C@@H](Cc2c[nH]c3ccc(F)cc23)C(=O)N[C@@H](Cc2ccccc2)C(=O)N[C@H](C(=O)N[C@H](CCCCNC(=O)CN2CCN(CC(=O)O)CCN(CC(=O)O)CCN(CC(=O)O)CC2)C(=O)O)C(C)(C)O)NC(=O)[C@H](Cc2ccc(OS(=O)(=O)F)cc2)NC(=O)[C@H](C(C)C)NC(=O)[C@H](CC(=O)O)NC(=O)[C@H](CC2CCOCC2)NC(=O)[C@H](CCCCN)NC(=O)CNC(=O)[C@H](C(C)(C)C)NC1=O` [Cpd #389, Ac-hLeu-Y-C-Tbg-G-K-ThpA-D-V-FSY-C-5FW-F-hydroxyVal-dLys(DOTA)-COOH] (Ac-[hLeu]YC[Tle]GK[Ala(4-THP)]DV[Tyr(SO2F)]C[Trp(5-F)]F[Val(3-OH)][dK](DOTA)-OH; disulfide 3-11), for which the Kd is < 1 nM. In the case of `CC(=O)N[C@@H](CCC(C)C)C(=O)N[C@@H](Cc1ccc(O)cc1)C(=O)N[C@H]1CSSC[C@@H](C(=O)N[C@@H](Cc2c[nH]c3ccc(F)cc23)C(=O)N[C@@H](Cc2ccccc2)C(=O)N2CCC[C@H]2C(=O)N[C@H](CCCCNC(=O)COCCOCCOCCOCCNC(=O)CN2CCN(CC(=O)O)CCN(CC(=O)O)CCN(CC(=O)O)CC2)C(=O)O)NC(=O)[C@H](Cc2ccc(O)cc2)NC(=O)[C@H](C(C)C)NC(=O)[C@H](CC(=O)O)NC(=O)[C@H](CC2CCOCC2)NC(=O)[C@H](CCCCN)NC(=O)CNC(=O)[C@H](C(C)(C)C)NC1=O` [compound 307, Ac-hLeu-Y-C-Tbg-G-K-ThpA-D-V-Y-C-5FW-F-Pro-dLys(PEG4-DOTA)-COOH] (Ac-[hLeu]YC[Tle]GK[Ala(4-THP)]DVYC[Trp(5-F)]FP[dK](X2)-OH; disulfide 3-11), the dissociation constant Kd under setting [2] lay in the range of 1 to 10 nM.

As to `CC(=O)N[C@@H](CCC(C)C)C(=O)N[C@@H](Cc1ccc(O)cc1)C(=O)N[C@H]1CSSC[C@@H](C(=O)N[C@@H](Cc2c[nH]c3ccc(F)cc23)C(=O)N[C@@H](Cc2ccccc2)C(=O)N[C@H](C(N)=O)C(C)(C)O)NC(=O)[C@H](Cc2ccc(O)cc2)NC(=O)[C@H](C(C)C)NC(=O)[C@H](CC(=O)O)NC(=O)[C@H](CC2CCN(C(=O)CCOCCOCCOCCOCCNC(=O)CN3CCN(CC(=O)O)CCN(CC(=O)O)CCN(CC(=O)O)CC3)CC2)NC(=O)[C@H](CC2CCNCC2)NC(=O)CNC(=O)[C@H](C(C)(C)C)NC1=O` [compound 445, Ac-hLeu-Y-C-Tbg-G-PipAla-Pip(PEG4-DOTA)Ala-D-V-Y-C-5FW-F-hydroxyVal-CONH2] (Ac-[hLeu]YC[Tle]G[Ala(piperidin-4-yl)][Ala(piperidin-4-yl)]([PEG4-DOTA])DVYC[Trp(5-F)]F[Val(3-OH)]-NH2; disulfide 3-11), under setting [1], the dissociation constant (Kd) is < 1 nM. Consider `CC(=O)N[C@@H](CCC(C)C)C(=O)N[C@@H](Cc1ccc(O)cc1)C(=O)N[C@H]1CSSC[C@@H](C(=O)N[C@@H](Cc2c[nH]c3ccc(F)cc23)C(=O)N[C@@H](Cc2ccccc2F)C(=O)N[C@H](C(=O)N[C@H](CCCCNC(=O)CN2CCN(CC(=O)O)CCN(CC(=O)O)CCN(CC(=O)O)CC2)C(N)=O)[C@@H](C)O)NC(=O)[C@H](Cc2ccc(O)cc2)NC(=O)[C@H](C(C)C)NC(=O)[C@H](CC(=O)O)NC(=O)[C@H](Cc2ccc(O)cc2)NC(=O)[C@H](CCCCN)NC(=O)CNC(=O)[C@H](C(C)C)NC1=O` [compound 164, Ac-hLeu-Y-C-V-G-K-Y-D-V-Y-C-5FW-2FPhe-Thr-dLys(DOTA)-CONH2] (Ac-[hLeu]YCVGKYDVYC[Trp(5-F)][Phe(2-F)]T[dK](DOTA)-NH2; disulfide 3-11), for which the Kd under setting [2] was < 1 nM. Compound `CCCC[C@H](NC(C)=O)C(=O)N[C@@H](Cc1ccc(O)cc1)C(=O)N[C@H]1CSSC[C@@H](C(=O)N[C@@H](Cc2c[nH]c3ccccc23)C(=O)N[C@@H](Cc2ccccc2)C(=O)N[C@H](C(=O)N[C@H](CCCCNC(=O)CN2CCN(CC(=O)O)CCN(CC(=O)O)CCN(CC(=O)O)CC2)C(N)=O)[C@@H](C)O)NC(=O)[C@H](Cc2ccc(O)cc2)NC(=O)[C@H](C(C)C)NC(=O)[C@H](CC(=O)O)NC(=O)[C@H](Cc2ccc(O)cc2)NC(=O)[C@H](CCCNC(=N)N)NC(=O)CNC(=O)[C@H](C(C)C)NC1=O` [compound 85, Ac-Nle-Y-C-V-G-Arg-Y-D-V-Y-C-W-F-Thr-dLys(DOTA)-CONH2] (Ac-[Nle]YCVGRYDVYCWFT[dK](DOTA)-NH2; disulfide 3-11) gave a Kd under setting [2] of 1 to 10 nM. For the compound `CC(=O)N[C@@H](CCC(C)C)C(=O)N[C@@H](Cc1ccc(O)cc1)C(=O)N[C@H]1CSSC[C@@H](C(=O)N[C@@H](Cc2c[nH]c3ccc(F)cc23)C(=O)N[C@H](C(=O)N[C@H](C(=O)N[C@H](CCCCNC(=O)CN2CCN(CC(=O)O)CCN(CC(=O)O)CCN(CC(=O)O)CC2)C(=O)N[C@H](CCC(=O)O)C(=O)O)C(C)(C)O)[C@@H](C)c2ccccc2)NC(=O)[C@H](Cc2ccc(NC(N)=O)cc2)NC(=O)[C@H](C(C)C)NC(=O)[C@H](CC(=O)O)NC(=O)[C@H](CC2CCOCC2)NC(=O)[C@H](CC2CCNCC2)NC(=O)CNC(=O)[C@H](C(C)(C)C)NC1=O` [compound 508, Ac-hLeu-Y-C-Tbg-G-PipAla-ThpA-D-V-Aph(Cbm)-C-5FW-[(2S, 3S)beta-Me-Phe]-hydroxyVal-dLys(DOTA)-dGlu-COOH] (Ac-[hLeu]YC[Tle]G[Ala(piperidin-4-yl)][Ala(4-THP)]DV[Phe(4-NHCONH2)]C[Trp(5-F)][X1][Val(3-OH)][dK](DOTA)[dE]-OH; disulfide 3-11), under setting [1], the equilibrium dissociation constant (Kd) was < 1 nM. In the case of `CC(=O)N[C@@H](CCC(C)C)C(=O)N[C@@H](Cc1ccc(O)cc1)C(=O)N[C@H]1CSSC[C@@H](C(=O)N[C@@H](Cc2c[nH]c3ccc(F)cc23)C(=O)N[C@@H](Cc2ccccc2)C(=O)N[C@H](C(=O)N[C@H](CO)C(N)=O)C(C)(C)O)NC(=O)[C@H](Cc2ccc(O)cc2)NC(=O)[C@H](C(C)C)NC(=O)[C@H](CC(=O)O)NC(=O)[C@H](CC2CCN(C(=O)CCOCCOCCOCCOCCNC(=O)CN3CCN(CC(=O)O)CCN(CC(=O)O)CCN(CC(=O)O)CC3)CC2)NC(=O)[C@H](CC2CCNCC2)NC(=O)CNC(=O)[C@H](C(C)(C)C)NC1=O` [compound 446, Ac-hLeu-Y-C-Tbg-G-PipAla-Pip(PEG4-DOTA)Ala-D-V-Y-C-5FW-F-hydroxyVal-dSer-CONH2] (Ac-[hLeu]YC[Tle]G[Ala(piperidin-4-yl)][Ala(piperidin-4-yl)]([PEG4-DOTA])DVYC[Trp(5-F)]F[Val(3-OH)][dS]-NH2; disulfide 3-11), the Kd under setting [1] was < 1 nM. `CC(=O)NCCCC[C@@H]1NC(=O)CNC(=O)[C@H](C(C)(C)C)NC(=O)[C@@H](NC(=O)[C@H](Cc2ccc(O)cc2)NC(=O)[C@H](CCC(C)C)NC(C)=O)CSSC[C@@H](C(=O)N[C@@H](Cc2c[nH]c3ccc(F)cc23)C(=O)N[C@H](C(=O)N[C@H](C(=O)N[C@H](C)C(=O)O)C(C)(C)O)[C@@H](C)c2ccccc2)NC(=O)[C@H](Cc2ccc(O)cc2)NC(=O)[C@H](C(C)C)NC(=O)[C@H](CC(=O)O)NC(=O)[C@H](CC2CCN(C(=O)CCOCCOCCOCCOCCNC(=O)CN3CCN(CC(=O)O)CCN(CC(=O)O)CCN(CC(=O)O)CC3)CC2)NC1=O` [compound 512, Ac-hLeu-Y-C-Tbg-G-Lys(Ac)-Pip(PEG4-DOTA)Ala-D-V-Y-C-5FW-[(2S, 3S)beta-Me-Phe]-hydroxyVal-dAla-COOH] (Ac-[hLeu]YC[Tle]GK(Ac)[Ala(piperidin-4-yl)]([PEG4-DOTA])DVYC[Trp(5-F)][X1][Val(3-OH)][dA]-OH; disulfide 3-11): the Kd under setting [1] is < 1 nM. On to `CCCC[C@H](NC(=O)[C@H](Cc1c[nH]c2ccc(F)cc12)NC(=O)[C@@H]1CSSC[C@H](NC(=O)[C@H](Cc2ccc(O)cc2)NC(=O)[C@H](CCC(C)C)NC(C)=O)C(=O)N[C@@H](C(C)(C)C)C(=O)NCC(=O)N[C@@H](CC2CCN(CC(=O)O)CC2)C(=O)N[C@@H](CC2CCOCC2)C(=O)N[C@@H](CC(=O)O)C(=O)N[C@@H](C(C)C)C(=O)N[C@@H](Cc2ccc(O)cc2)C(=O)N1)C(=O)N1CCC[C@H]1C(=O)N[C@H](CCCCNC(=O)CN1CCN(CC(=O)O)CCN(CC(=O)O)CCN(CC(=O)O)CC1)C(=O)O` [compound 321, Ac-hLeu-Y-C-Tbg-G-[Pip(CH2CO2H)Ala]-ThpA-D-V-Y-C-5FW-Nle-Pro-dLys(DOTA)-COOH] (Ac-[hLeu]YC[Tle]G[Ala(1-CH2CO2H-4-piperidyl)][Ala(4-THP)]DVYC[Trp(5-F)][Nle]P[dK](DOTA)-OH; disulfide 3-11), for which, under setting [1], the equilibrium dissociation constant (Kd) was in the range of 10 to 100 nM.

(Values after patent publication US20250296959A1, “B7-H3 TARGETING PEPTIDES AND CONSTRUCTS THEREOF” (Mariana Oncology Inc., priority 2024, published 2025).)
